From patent publication US20120071537A1, “New Oral Formulation” (priority 1998, published 2012)

How the values were obtained:
equine intestine = experiment: Gastro-intestinal motility after colic surgery (post-operative ileus) in horses; type: in vivo; conditions: i.v. or i.m., 0.01 to 10 mg/kg every 8 to 24 h
Description: 20 horses having colic syndrome are submitted to abdominal surgery. During surgery supportive therapy is applied to them. At the end of surgery, a specific 5-HT4 receptor agonist or partial agonist, e.g., Compound A, is administered i.v. or i.m., e.g. at a dose of from 0.01 to 10 mg/kg. This dose is repeated every 8 to 24 h until spontaneous defecation is observed. Gastro-intestinal motility is evaluated based e.g. on the presence or absence of gastric reflux as determined by nasogastric intubation, occurrence of borborygmi and timing of defecation after the first injection of the test compound.

rectal afferents = experiment: Single unit activity of rectal afferent fibres during barostat-controlled rectal distension in decerebrate cats; type: in vivo; conditions: i.v., incremental doses from 0.15 to 1.2 mg/kg
Description: Decerebrate, anaesthesia-free cats under continuous monitoring of blood pressure are paralysed by alcuronium chloride dissolved in rheomacrodex i.v. (200 μg/kg initially and supplementary doses of 100 μg/kg, if necessary), and artificially ventilated. Single unit activity of afferent fibres are recorded in a monopolar fashion from peripheral endings of centrally cut filaments of sacral dorsal roots. Tension receptors are identified by probing of their receptive fields in the wall of the mobilised rectum. Thereafter, the response of the units to barostat-controlled rectal ramp-distension is determined. The quantitative response characteristics of the units is evaluated with respect to distension pressure and resulting rectal diameter. Alternatively, the response of the units to pressure-induced peristalsis is measured. After obtaining 2 distension profiles (5 min each) and/or 10 min of peristalsis under control conditions, a 5-HT4 receptor agonist, partial agonist or antagonist, e.g., Compound A, or vehicle is applied i.v. and the protocol is repeated. Subsequently, the activity of additional units is recorded in the presence of a 5-HT4 receptor agonist, partial agonist or antagonist, e.g., Compound A, or vehicle according to the distension/peristalsis protocol. […]

[1] = test system: sensory perception of rectal distension; experiment: Colonic perfusion manometry with balloon distension, sensation threshold in fasted healthy volunteers; type: in vivo; conditions: 2-12 mg p.o., assessed 30 to 90 min after dosing
Description: Intraluminal pressures and reflexes in the last 60 cm of the colon of 10 fasted healthy volunteers are measured by means of perfusion manometry. Three latex balloons positioned at 50, 30 and 10 cm, allow volume stimulation. Basal values of colonic intraluminal pressures and reflexes are established. Subsequently, reflex inhibitory relaxations of the internal anal sphincter is triggered by inflating the balloons by 10 ml increments up to a maximum volume of 150 ml. During the inflation phase, two parameters are evaluated: a) the reflux threshold (volume able to induce a substantial pressure decrease of the internal anal sphincter); and b) the sensation threshold (volume able to induce a conscious defecation reflex). After the basal recordings, each subject is given a 5-HT4 receptor agonist, partial agonist or antagonist, e.g., Compound A, p.o. and 30 to 90 min later the colonic intraluminal pressure and reflexes are assessed again by the same method.

Solubility in water = type: physicochemical; conditions: at 25° C. in water
Description: By “poorly soluble” is meant an active agent having a solubility in aqueous media more than 0.001% and less than 10%, e.g., less than 1%, e.g., less than 0:1%, e.g., less than 0.05%, e.g., less than 0.02%, at room temperature, e.g., 25° C.
(§1) which is referred hereinafter as Compound A, or a pharmaceutically acceptable salt form thereof, e.g., the hydrogen maleate (hereinafter “hml”) salt.

[2] = Acid sensitivity (degradation under slightly acidic conditions); type: physicochemical
Text: Examples of compounds are known in the art and may be ascertained by routine experimentation.
as §1

[3] = Dissolution characteristics of oral tablet composition in water or USP buffers pH 6.8 and 7.5; type: physicochemical; conditions: composition comprising Tegaserod
Text: In a further aspect the present invention provides a pharmaceutical oral, e.g., tablet, composition comprising one of the active agents cited above, e.g., a 5-HT4 agonist, partial agonist or antagonist, e.g., Tegaserod, said composition having dissolution characteristics in water or in USP buffers pH 6.8 and 7.5 of
For example a composition according to the invention, e.g., comprising Tegaserod as the active agent, may have dissolution characteristics in water or in USP buffers pH 6.8 and 7.5 of: […]

solubility (Solubility in water): about 0.02%
acid sensitivity [2]: acid sensitive
amount (percentage) dissolved ([3]; time 5 minutes): 48.9 percentage
amount (percentage) dissolved ([3]; time 15 minutes): 95.5 percentage
amount (percentage) dissolved ([3]; time 30 minutes): 99.7 percentage
amount (percentage) dissolved ([3]; time 60 minutes): 100 percentage
SMILES: CCCCCNC(=N)NN=Cc1c[nH]c2ccc(OC)cc12 [Compound A, 3-(5-methoxy-1H-indol-3-yl-methylene)-N-pentylcarbazimidamide]
restoration of normal motility function of the equine intestine (equine intestine): effective in restoring normal motility function
distension pressure at which the most prominent inhibition of firing occurs (rectal afferents): 50 mmHg
dose giving half-maximal reduction of the firing rate of rectal afferents (rectal afferents): about 0.7 mg/kg
sensation threshold (volume able to induce a conscious defecation reflex) [1]: significantly reduced
